Measured values as given in US20080194585A1, “Fungicidal Pyrazine Derivatives” (priority 2005, published 2008).
Marks after values point to notes of the source that are not given here.

Tests used:
Septoria nodorum = test: Test H: wheat glum blotch, preventive spray on wheat seedlings
Method: (the causal agent of wheat glum blotch) and incubated in a saturated atmosphere at 20° C. for 48 h, and then moved to a growth chamber at 22° C. for 5 days, after which disease ratings were made.

Plasmopara viticola = test: Test D: grape downy mildew, spray after inoculation of grape seedlings; type: in vivo
Text: Upon removal, disease ratings were made. […] A dash (-) indicates no test results.

[1] = tested on: Erysiphe graminis f. sp. tritici; test: Test L: wheat powdery mildew, preventive spray on wheat seedlings
Pythium aphanidermatum = test: Test A: bluegrass pythium blight, preventive spray on bluegrass seedlings
[2] = tested on: Colletotrichum orbiculare; test: Test B: cucumber Colletotrichum anthracnose, preventive spray on cucumber seedlings
[3] = tested on: Puccinia recondita f. sp. tritici; test: Test K: wheat leaf rust, preventive spray on wheat seedlings
Phytophthora infestans = test: whole plant or invertebrate; type: in vivo
Botrytis cinerea = test: Test E: tomato botrytis, preventive spray on tomato seedlings
Septoria tritici = test: Test J: wheat leaf blotch, preventive spray on wheat seedlings; type: in vivo
Text: A dash (-) indicates no test results.

Rhizoctonia oryzae = test: Test G: turf brown patch, preventive spray on creeping bent grass seedlings
Method: (the causal agent of turf brown patch) and incubated in a saturated atmosphere at 27° C. for 24 h, and then moved to a growth chamber at 27° C. for 5 days, after which disease ratings were made.

Sclerotinia sclerotiorum = test: Test C: cucumber white mold, preventive spray on cucumber seedlings

Structure (SMILES)	Test H disease control rating (Septoria nodorum; 40 ppm (*))	Test D disease control rating (Plasmopara viticola; 40 ppm (*))	Test L disease control rating ([1]; 40 ppm (*))	Test A disease control rating (Pythium aphanidermatum; 40 ppm (*))	Test B disease control rating ([2]; 40 ppm (*))	Test K disease control rating ([3]; 40 ppm (*))	Test F disease control rating (Phytophthora infestans; 40 ppm (*))	Test E disease control rating (Botrytis cinerea; 40 ppm (*))	Test J disease control rating (Septoria tritici; 40 ppm (*))	Test G disease control rating (Rhizoctonia oryzae; 40 ppm (*))	Test C disease control rating (Sclerotinia sclerotiorum; 40 ppm (*))	further results
Cc1cccnc1-c1nc(Cl)c(-c2c(F)cccc2F)n(CC(C)C)c1=O [compound 210]	–	–	–	–	–	–	–	–	–	–	–	Test H disease control rating (Septoria nodorum; 200 ppm): 0%; Test D disease control rating (Plasmopara viticola; 200 ppm): 16%; Test L disease control rating ([1]; 200 ppm): 0%; Test A disease control rating (Pythium aphanidermatum; 200 ppm): 0%; Test B disease control rating ([2]; 200 ppm): 0%; Test K disease control rating ([3]; 200 ppm): 0%; Test F disease control rating (Phytophthora infestans; 200 ppm): 0%; Test E disease control rating (Botrytis cinerea; 200 ppm): 0%; Test J disease control rating (Septoria tritici; 200 ppm): 1%; Test G disease control rating (Rhizoctonia oryzae; 200 ppm): 0%; Test C disease control rating (Sclerotinia sclerotiorum; 200 ppm): 0%
COC=C(C)n1c(-c2c(F)cccc2F)c(Cl)nc(-n2cccn2)c1=O [compound 211]	0* %	4* %	0* %	0* %	0* %	27* %	0* %	0* %	25* %	0* %	0* %	–
COC=C(C)n1c(-c2c(F)cccc2F)c(Cl)nc(-n2cncn2)c1=O [compound 212]	0* %	8* %	0* %	0* %	0* %	0* %	0* %	0* %	0* %	0* %	0* %	–
CC(CO)n1c(-c2c(F)cccc2F)c(Cl)nc(-n2cccn2)c1=O (stereo not shown) [compound 213]	0* %	32* %	0* %	0* %	0* %	92* %	0* %	41* %	0* %	0* %	0* %	–
CC(CCl)n1c(-c2c(F)cccc2F)c(Cl)nc(-n2cncn2)c1=O (stereo not shown) [compound 214]	0* %	12* %	0* %	0* %	0* %	69* %	0* %	0* %	9* %	0* %	0* %	–
CC(C)Cn1c(-c2c(F)cccc2F)c(Cl)nc(-n2ccnn2)c1=O [compound 215]	0* %	29* %	0* %	0* %	0* %	55* %	0* %	99* %	0* %	0* %	0* %	–
CCC(C)Cn1c(-c2ccc(F)cc2Cl)c(Cl)nc(N2CCC=N2)c1=O (stereo not shown) [compound 216]	89* %	0* %	94* %	0* %	53* %	94* %	0* %	100* %	97* %	0* %	0* %	–
CCC(C)Cn1c(-c2ccc(F)cc2Cl)c(Cl)nc(N2CCC(=O)N2)c1=O (stereo not shown) [compound 217]	86* %	0* %	62* %	0* %	0* %	86* %	0* %	100* %	96* %	0* %	90* %	–
CC[C@H](C)Cn1c(-c2c(F)cc(F)cc2F)c(Cl)nc(N2CCC=N2)c1=O [compound 218]	100* %	29* %	100* %	0* %	99* %	100* %	0* %	100* %	100* %	43* %	99* %	–
CC[C@H](C)Cn1c(-c2c(F)cc(F)cc2F)c(Cl)nc(-n2ccc(C)n2)c1=O [compound 219]	100* %	36* %	100* %	0* %	100* %	100* %	0* %	100* %	100* %	99* %	70* %	–
N#Cc1nc(Cl)c(-c2c(F)cccc2F)n(Cc2ccc(Cl)cc2)c1=O [compound 220]	0* %	0* %	0* %	0* %	0* %	0* %	0* %	0* %	25* %	0* %	0* %	–
O=c1c(-n2cccn2)nc(Cl)c(-c2c(F)cccc2F)n1Cc1ccc(Cl)cc1 [compound 221]	98* %	0* %	0* %	0* %	0* %	89* %	0* %	99* %	100* %	16* %	0* %	–
O=c1c(-n2cncn2)nc(Cl)c(-c2c(F)cccc2F)n1Cc1ccc(Cl)cc1 [compound 222]	60* %	0* %	0* %	0* %	0* %	79* %	0* %	92* %	86* %	0* %	0* %	–
CC1CCCCC1n1c(-c2c(F)cccc2F)c(Cl)nc(C#N)c1=O (stereo not shown) [compound 223]	0* %	0* %	51* %	0* %	0* %	0* %	0* %	0* %	17* %	0* %	0* %	–
